{"source": "patent US20110294144A1", "about": "“SCREENING METHOD” (priority 2008, published 2011)", "key": {"[1]": {"tested_on": "mouse primary nerve cells infected with PRKX overexpression lentivirus", "experiment": "Immunostaining of S214 phosphorylated tau in mouse primary nerve cells infected with PRKX overexpression lentivirus", "assay_type": "cell-based", "conditions": "DIV12 mouse primary nerve cells, PRKX lentivirus MOI=2", "excerpt": "DIV12 mouse primary nerve cells plated in a 48 well plate at a concentration of 3.5×10^3 cells/well were infected with PRKX overexpression lentiviruses at MOI=2. Two days later, the cells were fixed with 4% para-formaldehyde, washed with phosphate buffer, and blocked with a phosphate buffer containing 1.5% BSA and 0.1% Triton X-100. Thereafter, as a primary antibody, an anti-S214 phosphorylated tau antibody was used to label phosphorylated tau, and an anti-MAP2 monoclonal antibody (Chemicon International) was used to label nerve cells. After washing, anti-S214 phosphorylated tau antibody was stained with anti-rabbit alexafluoro594-labeled secondary antibody, and anti-MAP2 antibody was stained with anti-mouse alexafluoro488-labeled secondary antibody (Invitrogen), and they were photographed using Discovery-1. As a result, the amount of tau S214 phosphorylation decreased due to H-89."}, "[2]": {"tested_on": "H4-tau cells infected with PRKX overexpression lentivirus", "experiment": "Thioflavin S positive cell count (tau aggregation) in H4-tau cells infected with PRKX overexpression lentivirus", "assay_type": "cell-based, human", "conditions": "3 μM H-89, added three days after infection; PRKX lentivirus MOI=2.5", "method": "H4-tau cells were plated in a 24 well plate at a concentration of 1×10^5 cells/well and, the next day, infected with PRKX or lacZ overexpression lentivirus at MOI=1 or 2.5. Three days later, H-89 was added to a concentration of 3 μM. The next day, the cells fixed with 4% para-formaldehyde were washed with phosphate buffer, and blocked with phosphate buffer containing 1.5% BSA and 0.1% Triton X-100. Thereafter, the cells were stained by using S214 phosphorylated tau, and anti-S214 phosphorylated tau or total tau antibody as a primary antibody and anti-rabbit Alexa Fluor 594-labeled secondary antibody as a secondary antibody. Thereafter, the cells were left standing in 0.005% aqueous thioflavin S (Sigma Ltd.) solution for 5 min, and washed twice with 70% ethanol and once with water. Furthermore, the nucleus was stained with DAPI. The stained cells were photographed by Discovery-1, and the number of DAPI positive cells and the number of thioflavin S positive cells were counted by metamorph software (Molecular Device) based on the images taken by Discovery-1. In the PRKX infected well, the number of cells stained with thioflavin S having a β sheet structure increased 2-fold at MOI=1 and 5.2-fold at MOI=2.5 as compared to lacZ infected well. By containing with a tau specific antibody, almost all thioflavin S positive images were contained with tau and S214 phosphorylated tau. […]"}, "[3]": {"tested_on": "H4 cells infected with PRKX overexpression lentivirus", "experiment": "Cell death (DAPI positive cell count) in H4 cells infected with PRKX overexpression lentivirus", "assay_type": "cell-based, human", "conditions": "PRKX lentivirus MOI=1", "method": "H4 cells were plated in a 48 well plate at a concentration of 3.5×10^3 cells/well and, the next day, infected with PRKX or lacZ overexpression lentivirus at MOI=1. Two days later, H-89 was added at 3 or 10 μM. The next day, the cells were fixed, and the nucleus was stained with DAPI. DAPI positive cells were photographed by Discovery-1, and the number of DAPI positive cells was counted from the images by a Metamorph software. […] The cell death was suppressed by 29% or 46% by the addition of 3 μM or 10 μM H-89."}, "[4]": {"tested_on": "mouse primary nerve cells infected with PRKX overexpression lentivirus", "experiment": "Neurite elongation (MAP2 staining) in mouse primary nerve cells infected with PRKX overexpression lentivirus", "assay_type": "cell-based", "conditions": "DIV14 mouse primary nerve cells, PRKX lentivirus MOI=2, forskolin 10 μM 2 days", "method": "DIV14 mouse primary nerve cells were plated in a 48 well plate at a concentration of 3.5×10^3 cells/well and infected with PRKX or D172A overexpression lentivirus at MOI=2. Four days after the infection, forskolin was added at a concentration of 10 μM, and the cells were cultured for 2 days. The cells were fixed, nerve cell was labeled with anti-MAP2 monoclonal antibody as a primary antibody, anti-MAP2 antibody was stained with anti-mouse Alexa Fluor 488-labeled secondary antibody, and they were photographed by Discovery-1. The neurite elongation was measured by a metamorph software based on the images taken by Discovery-1. As a result, the decrease of the neurite elongation found with the PRKX overexpression lentivirus was suppressed by 76% by H-89."}, "PRKX [5]": {"target": "T1, PRKX (Homo sapiens, UniProt P51817)", "T1 sequence (P51817 1-358)": "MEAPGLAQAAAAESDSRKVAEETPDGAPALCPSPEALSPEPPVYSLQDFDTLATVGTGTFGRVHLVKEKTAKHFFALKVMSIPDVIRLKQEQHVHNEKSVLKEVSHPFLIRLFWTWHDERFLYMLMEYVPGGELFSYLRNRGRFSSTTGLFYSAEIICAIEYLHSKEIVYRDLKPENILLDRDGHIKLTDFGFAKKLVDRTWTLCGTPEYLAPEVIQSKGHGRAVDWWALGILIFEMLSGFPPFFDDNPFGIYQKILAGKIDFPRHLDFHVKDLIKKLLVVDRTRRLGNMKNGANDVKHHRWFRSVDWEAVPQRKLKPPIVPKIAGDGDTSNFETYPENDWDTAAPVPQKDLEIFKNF", "conditions": "non-patent document 3; cited from earlier work"}, "PRKX [6]": {"target": "T1, PRKX", "experiment": "Cell-free tau S214 phosphorylation by recombinant PRKX protein, Western blot", "assay_type": "biochemical", "set-up": "purchased Invitrogen", "conditions": "30° C., 60 min", "method": "To a reaction mixture (40 mM Tris-HCl (pH 7.5), 20 mM MgCl2, 0.1 mg/ml BSA, 25 μl) containing recombinant PRKX protein (Invitrogen, 4 μg/ml) and recombinant tau protein (Wako Pure Chemical Industries, Ltd., 40 μg/ml) was added H-89 solution (40 mM Tris-HCl (pH 7.5), 0.1% DMSO, 20 mM MgCl2, 0.1 mg/ml BSA, 5 μl) to a concentration during reaction of 1 or 0.1 μM. As a control, 40 mM Tris-HCl (pH 7.5), 0.1% DMSO, 20 mM MgCl2, 0.1 mg/ml BSA solution (5 μl) were added. 25 μM ATP solution (40 mM Tris-HCl (pH 7.5), 20 mM MgCl2, 0.1 mg/ml BSA) was added by 20 μl to start the reaction and the mixture was left standing at 30° C. for 60 min. An SDS sample buffer was added to quench the reaction, the protein was separated using NuPAGE 4-12% Bis-Tris gel and transferred to a PVDF membrane. Western blot was performed using an anti-S214 phosphorylated tau antibody as a primary antibody and ECL Advance Western Blotting Detection Kit, and S214 phosphorylated tau was quantified by LAS-1000 plus lumino image analyzer. […] By the addition of H-89 at a final concentration of 1 and 0.1 μM, the tau S214 phosphorylation reaction decreased to 5% and 52%, respectively, of that without the addition."}, "PRKX [7]": {"target": "T1, PRKX", "experiment": "Western blot of S214 phosphorylated tau in H4-tau cells transfected with PRKX expression plasmid", "assay_type": "cell-based", "set-up": "using change-1F and hPRKX-1R as primers to give mutant PRKX full-length DNA; expressed in transfected cells; host or cells: H4-tau cells (human H4 neuroglial cells stably expressing human tau), transiently transfected with pPRKXkai (pTARGET vector)", "conditions": "10 μM H-89 added 2 hr before cell recovery", "method": "pFB-Neo-CMV-tau plasmid obtained by inserting a DNA fragment containing a wild-type human tau gene bound at the downstream of a CMV promoter into a multicloning site of pFB-neo vector (Stratagene) was transferred into H4 neuroglial cells according to the instructions of ViraPort(R) Retroviral Gene Expression System (Stratagene), and a cell confirmed to show expression of tau was used as a H4-tau cell. […] After transcription to a PVDF membrane, Western blot was performed using, as a primary antibody, an anti-S214 phosphorylated tau antibody (BioSource) for the detection of S214 phosphorylated tau, an Ab-3 antibody (Lab Vision) for the detection of total tau, and […], and according to the instructions of ECL Advance Western Blotting Detection Kit (Amarsham Bioscience), and each protein was detected by LAS-1000 plus lumino image analyzer (Fujifilm). […] The tranfected cell was dissolved in a cell lysis buffer (BioSource), the amount of S214 phosphorylated tau was measured using a human pS214 tau ELISA kit (BioSource), the amount of total tau was measured using a human total tau ELISA kit (BioSource), each according to the instructions, and the amount of phosphorylated tau in the total tau was examined. […]"}, "PRKX [8]": {"target": "T1, PRKX", "experiment": "pS214 tau / total tau ELISA in PRKX-transfected H4-tau cells", "assay_type": "cell-based", "set-up": "using change-1F and hPRKX-1R as primers to give mutant PRKX full-length DNA; expressed in transfected cells; host or cells: H4-tau cells (human H4 neuroglial cells stably expressing human tau), transiently transfected with pPRKXkai (pTARGET vector)", "conditions": "H-89 10-0.1 μM, 2 hr, pPRKXkai, read-out: IC50 of suppression of the amount of tau S214 phosphorylation (ELISA, phosphorylated tau in total tau)", "method": "pPRKXkai and pTARGET vectors were each transferred into H4-tau cells cultured overnight in a DMEM medium containing 10% FBS, using a Fugene6 transfection reagent. One day later, H-89 was added at a concentration of 10-0.1 μM. 2 hr later, the cells were dissolved in a cell lysis buffer, the amount of S214 phosphorylated tau was measured using a human pS214 tau ELISA kit, the amount of the total tau was measured using a human total tau ELISA kit, and the amount of phosphorylated tau in the total tau was examined. As a result, the amount of tau S214 phosphorylation was suppressed at an IC50 value of 0.7 μM."}, "PRKX [9]": {"target": "T1, PRKX", "experiment": "In-cell infrared fluorescence imaging (Odyssey) of S214 phosphorylated tau and total tau in PRKX-transfected H4-tau cells", "assay_type": "cell-based", "set-up": "using change-1F and hPRKX-1R as primers to give mutant PRKX full-length DNA; expressed in transfected cells; host or cells: H4-tau cells (human H4 neuroglial cells stably expressing human tau), transiently transfected with pPRKXkai (pTARGET vector)", "conditions": "H-89 10-0.1 μM, 2 hr; H4-tau cells in 96 well plate, pPRKXkai; read-out: IC50 of suppression of the amount of tau S214 phosphorylation (infrared fluorescence imaging)", "method": "H4-tau cells were plated in a DMEM medium containing 10% FBS in a 96 well plate at a concentration of 1×10^4 cells/well and, the next day, pPRKXkai and pTARGET vectors were each transferred thereinto using a Fugene6 transfection reagent. One day later, H-89 was added to the medium at a concentration of 10−0.1 μM. 2 hr later, the cells were fixed with 4% para-formaldehyde (Wako Pure Chemical Industries, Ltd.), washed with phosphate buffer, and blocked with phosphate buffer containing 1.5% BSA (Sigma Aldrich) and 0.1% Triton X-100 (Wako Pure Chemical Industries, Ltd.). Thereafter, as a primary antibody, an anti-S214 phosphorylated tau antibody was used to label phosphorylated tau and an anti-tau monoclonal antibody HT-7 (Pierce Biotechnology) was used to label total tau. After washing, they were reacted with an anti-rabbit Alexa Fluor 680-labeled secondary antibody (Invitrogen) and an anti-mouse IRD800CW-labeled secondary antibody (Wako Pure Chemical Industries, Ltd.), as secondary antibodies. After washing, the amounts of S214 phosphorylated tau and total tau were detected using 2 fluorescence system infrared fluorescence Imager Odyssey (ALOKA CO., LTD.). As a result, the amount of tau S214 phosphorylation was suppressed at an IC50 value of 0.7 μM."}}, "data": [{"smiles": "O=S(=O)(NCCNC/C=C/c1ccc(Br)cc1)c1cccc2cnccc12", "note": "[H-89]", "values": [{"measurement": "amount of tau S214 phosphorylation", "setting": "[1]", "result": "decreased"}, {"measurement": "suppression of the increase of thioflavin S stained cells", "setting": "[2]", "result": 75, "unit": "%"}, {"measurement": "suppression of cell death", "setting": "[3]; 3 μM H-89", "result": 29, "unit": "%"}, {"measurement": "suppression of cell death", "setting": "[3]; 10 μM H-89", "result": 46, "unit": "%"}, {"measurement": "suppression of the decrease of the neurite elongation", "setting": "[4]", "result": 76, "unit": "%"}, {"measurement": "inhibition of PRKX", "setting": "PRKX [5]", "result": "inhibit PRKX"}, {"measurement": "tau S214 phosphorylation reaction, % of that without the addition", "setting": "PRKX [6]; H-89 final concentration 0.1 μM", "result": 52, "unit": "%"}, {"measurement": "tau S214 phosphorylation reaction, % of that without the addition", "setting": "PRKX [6]; H-89 final concentration 1 μM", "result": 5, "unit": "%"}, {"measurement": "enhanced S214 phosphorylation of tau (Western blot)", "setting": "PRKX [7]", "result": "enhanced phosphorylation was not found"}, {"measurement": "IC50", "setting": "PRKX [8]", "result": 0.7, "unit": "µM"}, {"measurement": "IC50", "setting": "PRKX [9]", "result": 0.7, "unit": "µM"}]}]}
